Molecules are shown by their SMILES.

Data set [1] deals with T1, CB1 receptors present in the brain (Mus musculus, UniProt P47746). Briefly: Measurement (2): ex vivo binding of [3H]-CP55940 in the brain after intravenous administration. To be noted: iv at 10 mg/kg, mice, read-out: % inhibition of [3H]-CP55940 binding at the level of the brain. Further details: the CB1 receptors present in the brain in mice; from tissue; host or cells: mouse brain (after intravenous dosing). The source says:
(§1) Preferably, this percentage is less than 40%, and more preferably less than 30%.

For data set [2], the target named is T1, CB1 receptors present in the brain. Briefly: Measurement (3): blocking of the hypothermic effect induced by CP55940. Format: in vivo. Further details: [CB1 receptors present; from tissue; host or cells: living animal, brain CB1 receptors. To be noted: iv at 10 mg/kg.
Text: as §1

Data set [3] addresses T2, CB1 receptors present at the periphery (Mus musculus, UniProt P47746).
T2 construct: from tissue; host or cells: living mouse, peripheral (gastrointestinal) CB1 receptors
Briefly: blocking of the inhibitory effect of CP55940 on gastrointestinal transit. As to conditions: per os at 10 mg/kg, mice. Format: in vivo.

A short description of data set [4]: Measurement (1): quantification of compound in brain and plasma by LC-MS/MS. Format: in vivo. As to conditions: iv at 3 mg/kg, according to measurement (1), mouse, read-out: Ratio: Amount present in the brain/Amount present in the plasma.
Text: as §1

T1 sequence (P47746 whole entry): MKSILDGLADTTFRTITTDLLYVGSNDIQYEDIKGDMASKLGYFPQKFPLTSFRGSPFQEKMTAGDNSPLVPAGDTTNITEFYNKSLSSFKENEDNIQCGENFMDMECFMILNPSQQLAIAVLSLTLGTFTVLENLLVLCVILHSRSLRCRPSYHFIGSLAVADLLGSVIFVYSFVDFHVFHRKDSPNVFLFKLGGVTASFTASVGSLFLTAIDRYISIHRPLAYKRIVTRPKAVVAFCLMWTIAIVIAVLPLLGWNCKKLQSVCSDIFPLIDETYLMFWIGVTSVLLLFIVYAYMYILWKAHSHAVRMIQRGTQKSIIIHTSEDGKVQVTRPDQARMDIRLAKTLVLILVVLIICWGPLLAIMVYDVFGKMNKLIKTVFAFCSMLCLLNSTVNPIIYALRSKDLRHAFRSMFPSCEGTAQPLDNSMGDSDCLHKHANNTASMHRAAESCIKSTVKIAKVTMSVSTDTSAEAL
T2 sequence (P47746 whole entry): as above

On to `Cn1c(C(=O)N2CCC(NCc3cccc(F)c3)(C(N)=O)CC2)cc(-c2ccc(Cl)cc2Cl)c1-c1ccc(OCCCO)cc1` [Compound 11, 1-[4-(2,4-dichlorophenyl)-5-[4-(3-hydroxypropoxy)phenyl]-1-methyl-1H-pyrrole-2-carbonyl]-4-(3-fluorobenzylamino)piperidine-4-carboxamide], for which the inhibition (commonly how much of the control response was suppressed) at 10 mg/kg in data set [1] was determined as 25%. The “% reversion of the hypothermic effect of CP55940” value in data set [2] is reported as 64%.
With `Cn1c(C(=O)N2CCC(NCc3ccc(F)cc3)(C(N)=O)CC2)cc(-c2ccccc2Cl)c1-c1ccc(OCCCO)cc1` [Compound 24, 1-[4-(2-chlorophenyl)-5-[4-(3-hydroxypropoxy)phenyl]-1-methyl-1H-pyrrole-2-carbonyl]-4-(4-fluorobenzylamino)piperidine-4-carboxamide], the “% reversion of the effect of CP55940 on GI transit” value in data set [3] is reported as 100%. Besides, the inhibition at 10 mg/kg in data set [1] came out at 1%. The “% reversion of the hypothermic effect of CP55940” value in data set [2] stood at 20%.
As for `Cn1c(C(=O)N2CCC(C(N)=O)(c3ccccc3)CC2)cc(-c2ccc(Cl)cc2Cl)c1-c1ccc(OCC(N)=O)cc1` [Compound 16, 1-[5-(4-carbamoylmethoxy)phenyl-4-(2,4-dichlorophenyl)-1-methyl-1H-pyrrole-2-carbonyl]-4-phenylpiperidine-4-carboxamide], the “% reversion of the effect of CP55940 on GI transit” value in data set [3] turned out to be 76%. For the same compound, in data set [1], the inhibition at 10 mg/kg worked out at 8%. Further, the “% reversion of the hypothermic effect of CP55940” value in data set [2] is listed as 3%. In data set [4], the Kp was 0.05.

These data come from patent US8383666B2, “Pyrrole derivatives, preparation of same and therapeutic application thereof” (Sanofi, priority 2008, dated 2013).
